US9751869B2, “LXR modulators” (BRISTOL-MYERS SQUIBB COMPANY, priority 2013, dated 2017)

Biological target: T1, LXRβ (Homo sapiens, UniProt P55055)
T1 construct: Co-transfection expression plasmids, comprising full-length LXRα (pCMX-h LXRα or LXRβ (pCMX-hLXRβ)); expressed in transfected cells; host or cells: CV-1 African green monkey kidney cells, transient transfection with pCMX-hLXRβ
T1 sequence (P55055 1-460): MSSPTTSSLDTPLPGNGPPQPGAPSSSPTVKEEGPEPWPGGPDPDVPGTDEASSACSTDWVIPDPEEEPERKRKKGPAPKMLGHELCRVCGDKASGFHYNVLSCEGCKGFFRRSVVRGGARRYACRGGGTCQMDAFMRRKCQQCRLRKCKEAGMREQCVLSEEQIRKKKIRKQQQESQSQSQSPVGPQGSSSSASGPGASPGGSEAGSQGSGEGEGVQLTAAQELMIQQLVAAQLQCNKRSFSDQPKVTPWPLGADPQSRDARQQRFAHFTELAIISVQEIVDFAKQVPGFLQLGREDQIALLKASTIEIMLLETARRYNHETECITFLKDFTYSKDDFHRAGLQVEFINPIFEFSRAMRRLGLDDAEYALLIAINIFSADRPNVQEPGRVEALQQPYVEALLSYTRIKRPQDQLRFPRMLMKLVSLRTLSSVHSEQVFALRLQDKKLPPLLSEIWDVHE
T1 sequence (P19793 1-462 partner): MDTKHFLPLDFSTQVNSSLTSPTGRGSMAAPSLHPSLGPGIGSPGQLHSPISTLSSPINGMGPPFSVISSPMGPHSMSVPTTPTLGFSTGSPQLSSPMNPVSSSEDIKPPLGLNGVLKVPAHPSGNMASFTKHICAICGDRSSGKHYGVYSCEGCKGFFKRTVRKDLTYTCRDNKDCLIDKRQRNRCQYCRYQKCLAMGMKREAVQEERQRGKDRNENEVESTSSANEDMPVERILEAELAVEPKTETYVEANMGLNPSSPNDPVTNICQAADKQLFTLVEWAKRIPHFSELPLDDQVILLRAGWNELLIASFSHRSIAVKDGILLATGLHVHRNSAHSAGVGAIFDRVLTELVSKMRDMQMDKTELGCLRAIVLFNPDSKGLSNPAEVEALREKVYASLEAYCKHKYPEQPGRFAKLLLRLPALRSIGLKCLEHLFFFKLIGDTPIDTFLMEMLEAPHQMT
Assay: LXR/LXRE co-transfection assay (luciferase reporter) in CV-1 cells, LXRβ
Format: cell-based
Conditions: for EC50: CV-1 cells transfected with pCMX-hLXRβ and LXREx1-Tk-Luciferase, 20 hours incubation, read-out: LXRbeta agonism EC50; for Emax: CV-1 cells, relative to maximum response of high control N-(3-((4-fluorophenyl)-(naphthalene-2-sulfonyl)amino)propyl)-2,2-dimethylpropionamide, read-out: LXRbeta % EFFICACY
How it was run: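 CV-1 cells transiently co-transfected with full-length human LXRβ, LXRE-Tk-luciferase reporter and β-galactosidase control, then exposed to compound (≤0.5% DMSO) for 20 h at 37 °C before luminescence read. EC50 from 10-point, half-log dose curves; efficacy relative to the sulfonamide high control, means of 2–3 experiments.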

| EC50 | Emax | SMILES |
| --- | --- | --- |
| 0.783 µM | 68% | CC(O)C(F)(F)c1cc(-c2ccc(-c3cccc(S(C)(=O)=O)c3)cc2-n2nncc2-c2ccc(OC(F)(F)F)cc2)n(C)n1 (stereo not drawn) [Example 1, 1,1-difluoro-1-(1-methyl-5-(3′-(methylsulfonyl)-3-(5-(4-(trifluoromethoxy)phenyl)-1H-1,2,3-triazol-1-yl)biphenyl-4-yl)-1H-pyrazol-3-yl)propan-2-ol] |
| 0.084 µM | 88% | Cc1nc(-c2ccc(OC(F)F)c(F)c2)c(-c2cc(-c3cccc(S(C)(=O)=O)c3)ccc2-c2cc(C(F)(F)CO)nn2C)o1 [Example 76, 2-(5-(3-(4-(4-(difluoromethoxy)-3-fluorophenyl)-2-methyloxazol-5-yl)-3′-(methylsulfonyl)biphenyl-4-yl)-1-methyl-1H-pyrazol-3-yl)-2,2-difluoroethanol] |
| 0.652 µM | 12% | CS(=O)(=O)c1cccc(-c2ccc(-n3ccc(C(N)=O)n3)c(-c3oc(C4CC4)nc3-c3ccc(OC(F)(F)F)cc3)c2)c1 [Example 361, 1-(3-(2-cyclopropyl-4-(4-(trifluoromethoxy)phenyl)oxazol-5-yl)-3′-(methylsulfonyl)-[1,1′-biphenyl]-4-yl)-1H-pyrazole-3-carboxamide] |
| 0.715 µM | 37% | Cc1nc(-c2ccc3c(c2)OC(F)(F)O3)c(-c2cc(-c3cc(F)c(CO)c(S(C)(=O)=O)c3)ccc2-c2cc(C(F)(F)C(=O)NCCO)nn2C)o1 [Example 86, 2-(5-(3-(4-(2,2-difluorobenzo[d][1,3]dioxol-5-yl)-2-methyloxazol-5-yl)-3′-fluoro-4′-(hydroxymethyl)-5′-(methylsulfonyl)biphenyl-4-yl)-1-methyl-1H-pyrazol-3-yl)-2,2-difluoro-N-(2-hydroxyethyl)acetamide] |
| 0.008 µM | 72% | Cc1nc(-c2ccc3c(c2)OC(F)(F)O3)c(-c2cc(-c3cc(F)c(CO)c(S(C)(=O)=O)c3)ccc2-n2ccc(C(F)(F)F)n2)o1 [Example 349, (3′-(4-(2,2-difluorobenzo[d][1,3]dioxol-5-yl)-2-methyloxazol-5-yl)-3-fluoro-5-(methylsulfonyl)-4′-(3-(trifluoromethyl)-1H-pyrazol-1-yl)biphenyl-4-yl)methanol] |
| 0.046 µM | 94% | Cc1nc(-c2ccc(OC(F)(F)F)cc2)c(-c2cc(-c3cccc(S(C)(=O)=O)c3)ccc2-c2cc(C(F)(F)F)nn2C)o1 [Example 53, 2-methyl-5-(4-(1-methyl-3-(trifluoromethyl)-1H-pyrazol-5-yl)-3′-(methylsulfonyl)biphenyl-3-yl)-4-(4-(trifluoromethoxy)phenyl)Oxazole] |
| 0.008 µM | 72% | Cc1nc(-c2ccc(OC(F)F)nc2)c(-c2cc(-c3cc(F)c(CO)c(S(C)(=O)=O)c3)ccc2-n2cc(Cl)c(C(F)(F)F)n2)o1 [Example 426, (4′-(4-chloro-3-(trifluoromethyl)-1H-pyrazol-1-yl)-3′-(4-(6-(difluoromethoxy)pyridin-3-yl)-2-methyloxazol-5-yl)-3-fluoro-5-(methylsulfonyl)-[1,1′-biphenyl]-4-yl) methanol] |
| 0.012 µM | 71% | Cc1nc(-c2cc(-c3ccc(CO)c(S(C)(=O)=O)c3)ccc2-n2nc(C(F)(F)F)cc2C)c(-c2ccc(OC(F)F)cc2)o1 [Example 392, (3′-(5-(4-(difluoromethoxy)phenyl)-2-methyloxazol-4-yl)-4′-(5-methyl-3-(trifluoromethyl)-1H-pyrazol-1-yl)-3-(methylsulfonyl)biphenyl-4-yl)methanol] |
| 1.23 µM | 44% | Cc1nc(-c2ccc(OC(F)(F)F)cc2)c(-c2cc(-c3cccc(S(C)(=O)=O)c3)ccc2-n2nc(C(F)(F)F)cc2C2CC2)o1 [Example 324, 5-(4-(5-cyclopropyl-3-(trifluoromethyl)-1H-pyrazol-1-yl)-3′-(methylsulfonyl)biphenyl-3-yl)-2-methyl-4-(4-(trifluoromethoxy)phenyl)oxazole] |
